For the assay, the target named is T1, CYP17 (human testicular microsome) (Homo sapiens, UniProt P05093).
T1 construct: using microsomal fraction from human testis (Celsis Cat #S00110) as the enzyme source; tissue Celsis S00110; host or cells: human testis microsomal fraction
T1 sequence (P05093 1-508): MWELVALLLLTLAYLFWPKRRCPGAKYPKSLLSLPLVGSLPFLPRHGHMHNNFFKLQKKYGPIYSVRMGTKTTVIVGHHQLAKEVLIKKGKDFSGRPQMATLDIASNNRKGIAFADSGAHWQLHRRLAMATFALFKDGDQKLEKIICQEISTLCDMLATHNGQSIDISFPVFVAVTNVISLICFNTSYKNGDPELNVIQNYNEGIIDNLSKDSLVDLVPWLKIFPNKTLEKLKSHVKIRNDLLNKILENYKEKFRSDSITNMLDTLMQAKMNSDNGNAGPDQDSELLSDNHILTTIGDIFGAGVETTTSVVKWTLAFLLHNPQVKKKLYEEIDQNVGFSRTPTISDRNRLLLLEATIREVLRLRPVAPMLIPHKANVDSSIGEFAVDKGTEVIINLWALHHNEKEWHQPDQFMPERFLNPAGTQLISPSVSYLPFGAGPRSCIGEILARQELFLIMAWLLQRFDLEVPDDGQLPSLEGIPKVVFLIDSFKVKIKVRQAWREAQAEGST
The experiment in a line: CYP17 enzymatic assay (% inhibition at 1 nM) (Biological Example 12). The format is biochemical.

Where [1] appears, read: test compound at 1 nM, read-out: CYP17 enzymatic assay percent inhibition at 1 nM (Biological Example No. 12).
Setting [2] is: compound at 1 nM, read-out: Biological Example No. 12: CYP17 enzymatic assay % inhibition at 1 nM.
Where [3] appears, read: compound at 1 nM, read-out: CYP17 enzymatic assay % inhibition at 1 nM (Biological Example No. 12).

From patent publication US20130252930A1 (BIOMARIN PHARMACEUTICAL INC., priority 2010, published 2013) come the findings set out here.

Read-outs that look alike come from different tables or passages of the source.

The term inhibition denotes the share of the control response that was lost under treatment. Take `CC(=O)Nc1cncc(C2=CCC3C4CC=C5C[C@@H](O)CC[C@]5(C)C4CC[C@]23C)c1` (stereo partly drawn) [Compound 281, N-(5-((3S,10R,13S)-3-hydroxy-10,13-dimethyl-2,3,4,7,8,9,10,11,12,13,14,15-dodecahydro-1H-cyclopenta[a]phenanthren-17-yl)pyridin-3-yl)acetamide]: under setting [1], the inhibition at 0.001 µM is less than 10%. Regarding `C[C@]12CC[C@H](O)CC1=CCC1C2CC[C@]2(C)C(c3cncc(NS(=O)(=O)C(F)(F)F)c3)=CCC12` (stereo partly drawn) [Compound 282, 1,1,1-trifluoro-N-(5-((3S,10R,13S)-3-hydroxy-10,13-dimethyl-2,3,4,7,8,9,10,11,12,13,14,15-dodecahydro-1H-cyclopenta[a]phenanthren-17-yl)pyridin-3-yl)methanesulfonamide], the inhibition at 0.001 µM under setting [2] is less than 10%. For the compound `C[C@]12CC[C@H](O)CC1=CCC1C2CC[C@]2(C)C(c3cncc(NS(C)(=O)=O)c3)=CCC12` (stereo partly drawn) [Compound 284, N-(5-((3S,10R,13S)-3-hydroxy-10,13-dimethyl-2,3,4,7,8,9,10,11,12,13,14,15-dodecahydro-1H-cyclopenta[a]phenanthren-17-yl)pyridin-3-yl)methanesulfonamide], under setting [2], the inhibition at 0.001 µM is less than 10%. On to `CC1(C)C(=O)CC[C@@]2(C)C1=CC[C@@H]1[C@@H]2CC[C@]2(C)C(c3cccnc3)=CC[C@@H]12` [Compound 293, (10R,13S)-4,4,10,13-tetramethyl-17-(pyridin-3-yl)-4,7,8,9,10,11,12,13,14,15-decahydro-1H-cyclopenta[a]phenanthren-3(2H)-one], for which the inhibition at 0.001 µM under setting [3] was less than 10%. Still for that read-out and setting: next, `CC1(C)C2=CC[C@@H]3[C@H](CC[C@]4(C)C(c5cccnc5)=CC[C@@H]34)[C@@]2(C)CCC1O` (stereo partly drawn) [Compound 294, (10R,13S)-4,4,10,13-tetramethyl-17-(pyridin-3-yl)-2,3,4,7,8,9,10,11,12,13,14,15-dodecahydro-1H-cyclopenta[a]phenanthren-3-ol]: less than 10%.

For `CC1C(O)CC[C@@]2(C)C1CCC1C2CC[C@]2(C)C(c3cncc(F)c3)=CCC12` (stereo partly drawn) [Compound 305, (10R,13S)-17-(5-fluoropyridin-3-yl)-4,10,13-trimethyl-2,3,4,5,6,7,8,9,10,11,12,13,14,15-tetradecahydro-1H-cyclopenta[a]phenanthren-3-ol], the inhibition at 0.001 µM under setting [2] is less than 10%. Consider `CC1C(O)CC[C@@]2(C)C1CCC1C2CC[C@]2(C)C(c3cncc(C(F)F)c3)=CCC12` (stereo partly drawn) [Compound 306, (10R,13S)-17-(5-(difluoromethyl)pyridin-3-yl)-4,10,13-trimethyl-2,3,4,5,6,7,8,9,10,11,12,13,14,15-tetradecahydro-1H-cyclopenta[a]phenanthren-3-ol], for which, under setting [2], the inhibition at 0.001 µM was less than 10%. For the compound `C[C@H]1C2CCC3C(CC[C@]4(C)C(c5cncc(C(F)F)c5)=CCC34)[C@@]2(C)CC[C@@H]1O` (stereo partly drawn) [Compound 307, (3S,4S,10R,13S)-17-(5-(difluoromethyl)pyridin-3-yl)-4,10,13-trimethyl-2,3,4,5,6,7,8,9,10,11,12,13,14,15-tetradecahydro-1H-cyclopenta[a]phenanthren-3-ol], the inhibition at 0.001 µM under setting [2] was 10 to 50%. Still for that read-out and setting: the figure for `C[C@H]1C2CCC3C(CC[C@]4(C)C(c5cncc(C(F)F)c5)=CCC34)[C@@]2(C)CC[C@H]1O` (stereo partly drawn) [Compound 308, (3R,4S,10R,13S)-17-(5-(difluoromethyl)pyridin-3-yl)-4,10,13-trimethyl-2,3,4,5,6,7,8,9,10,11,12,13,14,15-tetradecahydro-1H-cyclopenta[a]phenanthren-3-ol] is less than 10%; for `CC1=C2CCC3C(CC[C@]4(C)C(c5cccnc5)=CCC34)[C@@]2(C)CC/C1=N\O` (stereo partly drawn) [Compound 364, (10R,13S,E)-4,10,13-trimethyl-17-(pyridin-3-yl)-6,7,8,9,10,11,12,13,14,15-decahydro-1H-cyclopenta[a]phenanthren-3(2H)-one oxime] it is 10 to 50%. On the same count and under the same terms, next, `C[C@]12CC(O)CC1CCC1C2CC[C@]2(C)C(c3cncc(Cl)c3)=CCC12` (stereo partly drawn) [Compound 397, (3aS,5aS)-6-(5-chloropyridin-3-yl)-3a,5a-dimethyl-1,2,3,3a,3b,4,5,5a,8,8a,8b,9,10,10a-tetradecahydrodicyclopenta[a,f]naphthalen-2-ol]: 10 to 50%.

In the case of `CC1(O)CC2CC[C@@H]3[C@H](CC[C@]4(C)C(c5cccnc5)=CC[C@@H]34)[C@@]2(C)C1` (stereo partly drawn) [Compound 400, (3aS,5aS)-2,3a,5a-trimethyl-6-(pyridin-3-yl)-1,2,3,3a,3b,4,5,5a,8,8a,8b,9,10,10a-tetradecahydrodicyclopenta[a,f]naphthalen-2-ol], the inhibition at 0.001 µM under setting [1] lay in the range of 10 to 50%. Regarding `C[C@]12CC(F)(F)CC1CCC1C2CC[C@]2(C)C(c3cccnc3)=CCC12` (stereo partly drawn) [Compound 407, 3-((8aS,10aS)-7,7-difluoro-8a,10a-dimethyl-3,3a,3b,4,5,5a,6,7,8,8a,8b,9,10,10a-tetradecahydrodicyclopenta[a,f]naphthalen-1-yl)pyridine], the inhibition at 0.001 µM under setting [1] was in the range of 10 to 50%. As to `C[C@]12CC[C@H]3[C@@H](CCC45CC4C(O)CC[C@]35C)[C@@H]1CC=C2c1cncc(F)c1` (stereo partly drawn) [Compound 412, (4aR,6aS)-7-(5-fluoropyridin-3-yl)-4a,6a-dimethyl-1a,2,3,4,4a,4b,5,6,6a,9,9a,9b,10,11-tetradecahydro-1H-cyclopenta[a]cyclopropa[j]phenanthren-2-ol], the inhibition at 0.001 µM under setting [2] was in the range of 10 to 50%.

As to `CC(=O)NC1CC[C@@]2(C)C(CCC3C2CC[C@]2(C)C(c4cccnc4)=CCC32)C1C` (stereo partly drawn) [Compound 413, N-((10R,13S)-4,10,13-trimethyl-17-(pyridin-3-yl)-2,3,4,5,6,7,8,9,10,11,12,13,14,15-tetradecahydro-1H-cyclopenta[a]phenanthren-3-yl)acetamide], under setting [2], the inhibition at 0.001 µM was less than 10%. Still for that read-out and setting: the figure for `CCNC(=O)NC1CC[C@@]2(C)C(CCC3C2CC[C@]2(C)C(c4cccnc4)=CCC32)C1C` (stereo partly drawn) [Compound 414, 1-ethyl-3-((10R,13S)-4,10,13-trimethyl-17-(pyridin-3-yl)-2,3,4,5,6,7,8,9,10,11,12,13,14,15-tetradecahydro-1H-cyclopenta[a]phenanthren-3-yl)urea] is less than 10%; for `CC1C[C@@]2(C)C(CC[C@@H]3[C@@H]2CC[C@]2(C)C(c4cccnc4)=CC[C@@H]32)C(C)C1=O` (stereo partly drawn) [Compound 415, (10R,13S)-2,4,10,13-tetramethyl-17-(pyridin-3-yl)-4,5,6,7,8,9,10,11,12,13,14,15-dodecahydro-1H-cyclopenta[a]phenanthren-3(2H)-one] it is less than 10%; for `CC1C[C@@]2(C)C(CC[C@@H]3[C@@H]2CC[C@]2(C)C(c4cccnc4)=CC[C@@H]32)C(C)C1O` (stereo partly drawn) [Compound 416, (10R,13S)-2,4,10,13-tetramethyl-17-(pyridin-3-yl)-2,3,4,5,6,7,8,9,10,11,12,13,14,15-tetradecahydro-1H-cyclopenta[a]phenanthren-3-ol] it is 10 to 50%.

Turning to `CC1(O)C=C2CC[C@@H]3[C@H](CC[C@]4(C)C(c5cccnc5)=CC[C@@H]34)[C@@]2(C)CC1` (stereo partly drawn) [Compound 422, (10R,13S)-3,10,13-trimethyl-17-(pyridin-3-yl)-2,3,6,7,8,9,10,11,12,13,14,15-dodecahydro-1H-cyclopenta[a]phenanthren-3-ol], the inhibition at 0.001 µM under setting [2] lay within 10 to 50%.
